Results on 14 molecules are retold here after ChEMBL document CHEMBL5352426, “Synthesis and anti-tumor activity of nitrogen-containing derivatives of the natural product diphyllin” (Eur J Med Chem, 2022).

One may read the solubility as the concentration that dissolves in the medium under given conditions. Higher therefore signals much dissolved substance. Broadly, the inhibition is the relative decrease from the control value, in per cent. A word on the IC50: it is the concentration at which inhibition is half-maximal. The term pIC50 denotes −log10 of the IC50, conventionally taken in molar units. The half-life is the time needed for the level to fall by half in the phase considered.

A short description of data set [1]: Aqueous solubility of the compound at 1 to 2 mg measured after 24 hrs by HPLC-MS analysis. It counts as physicochemical. The note with it: aqueous (not further specified), dose 1-2 mg.
Data set [2] deals with CFPAC-1. The data set can be described thus: Inhibition of autophagy at later stage in human CFPAC-1 cells assessed as increase in LC3-II/LC3-I ratio at 10 to 1000 nM incubated for 24 hrs by Western blot analysis. It counts as functional, cell-based. The note with it: dose 10-1000 nM.
For data set [3], the system named is CFPAC-1. Put plainly: Downregulation of CDK4 expression level in human CFPAC-1 cells incubated for 24 hrs by Western blot analysis. In kind it is functional, cell-based. Conditions: dose 10-1000 nM.
The subject of data set [4] is CFPAC-1. The data set can be described thus: Downregulation of cyclin D1 expression level in human CFPAC-1 cells incubated for 24 hrs by Western blot analysis. Conditions: dose 10-1000 nM. It counts as functional, cell-based.
The subject of data set [5] is CFPAC-1. The data set can be described thus: Effect on beclin-1 level in human CFPAC-1 cells at 10 to 1000 nM incubated for 24 hrs by Western blot analysis. In kind it is functional, cell-based. Conditions: dose 10-1000 nM. In general terms: A western blot detects proteins with antibodies after separation by electrophoresis.
The test system of data set [6] is CFPAC-1. The data set can be described thus: Inhibition of autophagy at later stage in human CFPAC-1 cells assessed as increase in LC3-II/LC3-I ratio at 1 uM incubated for 24 hrs in presence of chloroquine by Western blot analysis. In kind it is functional, cell-based.
Data set [7] is described as follows: Antiproliferative activity against human L02 cells assessed as inhibition of cell proliferation at 1 uM incubated for 72 hrs by SRB assay relative to control. In kind it is toxicity, cell-based.
In data set [8] the test system is MIA PaCa-2. The data set can be described thus: Antiproliferative activity against human MIA PaCa-2 cells assessed as inhibition of cell proliferation at 1 uM incubated for 72 hrs by SRB assay relative to control. It counts as functional. Background: In SRB staining, fixed cells bind dye roughly in proportion to their protein.
In data set [9] the test system is CFPAC-1. The data set can be described thus: Antiproliferative activity against human CFPAC-1 cells assessed as inhibition of cell proliferation at 1 uM incubated for 72 hrs by SRB assay relative to control. In kind it is functional.
For data set [10], the system named is PaTu 8988t. Put plainly: Antiproliferative activity against human PaTu 8988t cells assessed as inhibition of cell proliferation at 1 uM incubated for 72 hrs by SRB assay relative to control. It counts as functional.
Data set [11] deals with Panc02. The data set can be described thus: Antiproliferative activity against mouse Panc02 cells assessed as inhibition of cell proliferation at 1 uM incubated for 72 hrs by SRB assay relative to control. It counts as functional.
Data set [12] is described as follows: Antiproliferative activity against human L02 cells assessed as inhibition of cell proliferation incubated for 72 hrs by SRB assay. It counts as toxicity, cell-based.
Data set [13] has as its system MIA PaCa-2. The data set can be described thus: Antiproliferative activity against human MIA PaCa-2 cells assessed as inhibition of cell proliferation incubated for 72 hrs by SRB assay. It counts as functional, cell-based. The note with it: MIA PaCa-2, 72 h.
Data set [14] has as its system CFPAC-1. The data set can be described thus: Antiproliferative activity against human CFPAC-1 cells assessed as inhibition of cell proliferation incubated for 72 hrs by SRB assay. It counts as functional, cell-based. Conditions: CFPAC-1, 72 h.
Data set [15] has as its system PaTu 8988t. The data set can be described thus: Antiproliferative activity against human PaTu 8988t cells assessed as inhibition of cell proliferation incubated for 72 hrs by SRB assay. In kind it is functional, cell-based.
Data set [16] deals with Panc02. The data set can be described thus: Antiproliferative activity against mouse Panc02 cells assessed as inhibition of cell proliferation incubated for 72 hrs by SRB assay. The note with it: Panc02, 72 h. It counts as functional, cell-based.
Data set [17] can be described thus: Metabolic stability in human liver microsome assessed as half life. The note with it: liver microsomes. It counts as ADME. On the technique in general: Liver microsomes are vesicles of endoplasmic reticulum, rich in cytochrome P450 enzymes.
Data set [18] in a line: Metabolic stability in human liver microsome assessed as intrinsic clearance. It counts as ADME. Conditions: liver microsomes, read-out: CLH.
Data set [19] can be described thus: Metabolic stability in human liver microsome assessed as hepatic clearance. In kind it is ADME. The note with it: microsomes.
Data set [20] can be described thus: Metabolic stability in mouse liver microsome assessed as half life. In kind it is ADME. Conditions: liver microsomes.
Data set [21] is described as follows: Metabolic stability in mouse liver microsome assessed as intrinsic clearance. Conditions: liver microsomes, read-out: CLH. It counts as ADME.
Data set [22] is described as follows: Metabolic stability in mouse liver microsome assessed as hepatic clearance. The note with it: microsomes. In kind it is ADME.

SMILES strings stand for the structures. pIC50: −log10 of the molar value. Active and inactive are the calls of the source.

With `COc1cc2c(N)c3c(c(-c4ccc5c(c4)OCO5)c2cc1OC)C(=O)OC3.Cl`, in [1], the solubility at 24 h is 0.055 µg/mL.
`COc1cc2c(N)c3c(c(-c4ccc5c(c4)OCO5)c2cc1OC)C(=O)OC3`: the inhibition result in data set [2] and in data set [6] was “Active” each time. Further, the Activity result in data set [3] and in [4] was “Dose-Dependent Effect” in each case. Besides, the outcome in data set [5] was inactive.
On to `COc1cc2c(NC(=O)OC(C)(C)C)c3c(c(-c4ccc5c(c4)OCO5)c2cc1OC)C(=O)OC3`, for which the inhibition at 72 h, 1 µM in [7] turned out to be 9.56%. For the same molecule, the inhibition at 1 µM stood at 52.5% in data set [8], 70.5% in data set [9], 72% in data set [10] and 78.1% in data set [11]. Further, the IC50 at 72 h in data set [12] is 5120 nM. The pIC50 in [13] was 6.79; in data set [14] it was 7.43; in data set [15], 7.06; in data set [16] it was 6.58.
For `COc1cc2c(NC(=O)[C@@H](N)COC(C)=O)c3c(c(-c4ccc5c(c4)OCO5)c2cc1OC)C(=O)OC3`, the inhibition at 72 h, 1 µM in data set [7] is -0.71%. Moreover, the inhibition at 1 µM came out at 3.38% in [8], 11.6% in data set [9], 2.63% in [10] and 8.86% in data set [11].
On to `COc1cc2c(OCCCc3cn([C@H]4O[C@@H](C)[C@H](OC(C)=O)[C@@H](OC(C)=O)[C@H]4OC(C)=O)nn3)c3c(c(-c4ccc5c(c4)OCO5)c2cc1OC)C(=O)OC3`, for which, in data set [7], the inhibition at 72 h, 1 µM is 38.3%. The inhibition at 1 µM was determined as 93.6% in data set [8], 75.7% in [9], 93.9% in data set [10] and 86.7% in data set [11]. For the same molecule, the IC50 at 72 h in data set [12] worked out at 494 nM. The pIC50 in data set [13] was 7.40; in [14], 8.15; in [15], 7.62; in data set [16], 7.92. Further, the half-life in data set [17] and in [20] was below 5 min in each case. In addition, the microsomal CLint in [18] and in data set [21] was above 277 µL/min/mg each time. Also, the figures for the CLH in data set [19] and in data set [22] were above 19.4 mL/min/kg and above 83.2 mL/min/kg, respectively.
For the molecule `COC(=O)CNc1c2c(c(-c3ccc4c(c3)OCO4)c3cc(OC)c(OC)cc13)C(=O)OC2`, in data set [7], the inhibition at 72 h, 1 µM is 10.8%. For the same molecule, the inhibition at 1 µM in [8] amounted to 10.2%; in data set [9] it was 48.4%; in data set [10], 85.2%; in [11], 42%.
For `COc1cc2c(NS(N)(=O)=O)c3c(c(-c4ccc5c(c4)OCO5)c2cc1OC)C(=O)OC3`, in that order: 14.9%, 29%, 72.4%, 34.1% and 80.7%.
On to `COc1cc2c(OCc3cn([C@H]4O[C@@H](C)[C@H](OC(C)=O)[C@@H](OC(C)=O)[C@H]4OC(C)=O)nn3)c3c(c(-c4ccc5c(c4)OCO5)c2cc1OC)C(=O)OC3`, for which the inhibition at 72 h, 1 µM in [7] amounted to 21.6%. Moreover, the inhibition at 1 µM came to 83.7% in data set [8], 65.9% in data set [9], 72.5% in [10] and 76.3% in data set [11]. The IC50 at 72 h in data set [12] was determined as 1230 nM. The pIC50 is 6.61 in data set [13], 7.01 in [14], 6.79 in [15] and 6.57 in [16].
As for `COc1cc2c(OCCOCc3cn([C@H]4O[C@@H](C)[C@H](OC(C)=O)[C@@H](OC(C)=O)[C@H]4OC(C)=O)nn3)c3c(c(-c4ccc5c(c4)OCO5)c2cc1OC)C(=O)OC3`, the inhibition at 72 h, 1 µM in data set [7] came out at 16.4%. Further, the inhibition at 1 µM was found to be 72.4% in data set [8], 66.7% in [9], 86.5% in data set [10] and 53.4% in [11]. Moreover, the IC50 at 72 h in data set [12] was 1040 nM. Moreover, the pIC50 in data set [13] is 6.12; in data set [14], 7.30; in [15], 6.12; in data set [16], 6.67.
Take `CNc1c2c(c(-c3ccc4c(c3)OCO4)c3cc(OC)c(OC)cc13)C(=O)OC2`: the inhibition at 72 h, 1 µM in [7] turned out to be 35.5%. In addition, the inhibition at 1 µM came to 92.3% in data set [8], 82.1% in data set [9], 92% in data set [10] and 91.4% in [11].
In the same order, the values of `COc1cc2c(OCCOCc3cn([C@H]4O[C@@H](C)[C@H](O)[C@@H](O)[C@H]4O)nn3)c3c(c(-c4ccc5c(c4)OCO5)c2cc1OC)C(=O)OC3` are 1.57%, 0.16%, 53.9%, 0.9% and 46%.
For `COc1cc2c(NC(=O)[C@H](C)N)c3c(c(-c4ccc5c(c4)OCO5)c2cc1OC)C(=O)OC3`, in that order: 1.54%, 0.64%, 42.7%, -4.32% and 25.3%.
In the same order, the values of `COc1cc2c(OCc3cn([C@H]4O[C@@H](C)[C@H](O)[C@@H](O)[C@H]4O)nn3)c3c(c(-c4ccc5c(c4)OCO5)c2cc1OC)C(=O)OC3` are -1.75%, 0.95%, 14.9%, -2.09% and 8.85%.
As to `COc1cc2c(OCCCc3cn([C@H]4O[C@@H](C)[C@H](O)[C@@H](O)[C@H]4O)nn3)c3c(c(-c4ccc5c(c4)OCO5)c2cc1OC)C(=O)OC3`, in data set [7], the inhibition at 72 h, 1 µM is -0.18%. The inhibition at 1 µM in data set [8] was found to be 46.5%; in data set [9], 45.9%; in data set [10], 8.08%; in data set [11], 16.6%.
